From patent publication US8822471B2, “Compounds, pharmaceutical compositions and uses thereof” (Boehringer Ingelheim International GmbH, priority 2011, dated 2014)

target: T1, human GPR119 (Homo sapiens, UniProt Q8TDV5); assay: AlphaScreen cAMP assay in MIN6 cells stably transfected with human GPR119; format: cell-based; settings: Min-6/hGPR119 cells, AlphaScreen cAMP Assay Kit, 45 minutes incubation at room temperature
T1 construct: expression vector for human GPR119 cDNA (Acc. No. NP_848566); expressed in transfected cells
T1 sequence (Q8TDV5 1-335): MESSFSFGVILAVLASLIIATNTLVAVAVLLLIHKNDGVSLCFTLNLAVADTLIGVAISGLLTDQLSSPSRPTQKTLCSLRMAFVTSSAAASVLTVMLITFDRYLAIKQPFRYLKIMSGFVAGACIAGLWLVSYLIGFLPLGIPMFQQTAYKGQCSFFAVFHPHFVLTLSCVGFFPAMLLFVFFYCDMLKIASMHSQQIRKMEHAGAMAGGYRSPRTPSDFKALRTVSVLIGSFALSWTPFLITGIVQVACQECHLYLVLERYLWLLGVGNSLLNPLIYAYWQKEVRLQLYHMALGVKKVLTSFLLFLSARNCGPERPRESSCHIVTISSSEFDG
Method: The compounds of formula I according to the invention modulate the activity of the G-protein-coupled receptor GPR119. The effect of the compounds on the activation of GPR119 and on the stimulation of intracellular cAMP concentration is determined using the AlphaScreen cAMP Assay Kit (Cat. No. #6760625R) made by PerkinElmer.
MIN6 cells [Miyazaki J et al. Endocrinology. 1990 July; 127(1):126-32] are stably transfected with an expression vector for human GPR119 cDNA (Acc. No. NP_848566). Min-6/hGPR119 cells are cultured in DMEM, 10% FBS, 50 μM β-mercaptoethanol, 0.3 mg/mL Geniticin, 2 mM GlutaMAX at 37° C. 5% CO2. For the assay, the cells are seeded in Optiplates (white, 384-well, 160 W-barcoded, TC, sterile with lid, Cat. No. #6007688 (Perkin Elmer); 10000 cells/well; 50 μl). The plates covered with lids are then incubated for 24 hours at 37° C./5% CO2. After the medium is aspirated from the wells completely, 10 μl of the test compound are added, the compounds are diluted using stimulating buffer (140 mM NaCl, 3.6 mM KCl, 0.5 mM NaH2PO4, 0.5 mM MgSO4, 1.5 mM CaCl2, 10 mM Hepes, 5 mM NaHCO3; pH 7.4. 0.5 mM IBMX and 0.1% BSA, the final DMSO concentration is 1%). After 45 minutes incubation at room temperature (approx. 20° C.), the cAMP concentrations are determined using the AlphaScreen cAMP Assay Kit (Cat. No. #6760625R from PerkinElmer).

Row | EC50 [nM] | SMILES
1 | 731 | CC(C)(O)c1noc(N2CCC(N(C(=O)c3ccc(-c4cnco4)cc3)C3CC3)CC2)n1 [Example 46, N-Cyclopropyl-N-{1-[3-(1-hydroxy-1-methyl-ethyl)-[1,2,4]oxadiazol-5-yl]-piperidin-4-yl}-4-oxazol-5-yl-benzamide]
2 | 37 | O=C(c1ccc(-c2cnco2)cc1)N(C1CC1)C1CCN(c2noc(-c3ccccc3)n2)CC1 [Example 47, N-Cyclopropyl-4-oxazol-5-yl-N-[1-(5-phenyl-[1,2,4]oxadiazol-3-yl)-piperidin-4-yl]-benzamide]
3 | 47 | CCc1nc(N2CCC(N(C(=O)c3ccc(-c4cnco4)cc3)C3CC3)CC2)no1 [Example 48, N-Cyclopropyl-N-[1-(5-ethyl-[1,2,4]oxadiazol-3-yl)-piperidin-4-yl]-4-oxazol-5-yl-benzamide]
4 | 14 | CC(C)c1nc(N2CCC(N(C(=O)c3ccc(-c4cnco4)cc3)C3CC3)CC2)no1 [Example 49, N-Cyclopropyl-N-[1-(5-isopropyl-[1,2,4]oxadiazol-3-yl)-piperidin-4-yl]-4-oxazol-5-yl-benzamide]
5 | 277 | O=C(c1ccc(-c2cnco2)cc1)N(C1CC1)C1CCN(c2noc(-c3cnccn3)n2)CC1 [Example 50, N-Cyclopropyl-4-oxazol-5-yl-N-[1-(5-pyrazin-2-yl-[1,2,4]oxadiazol-3-yl)-piperidin-4-yl]-benzamide]
6 | 56 | O=C(c1ccc(-c2cnco2)cc1)N(C1CC1)C1CCN(c2noc(C3CC3)n2)CC1 [Example 51, N-Cyclopropyl-N-[1-(5-cyclopropyl-[1,2,4]oxadiazol-3-yl)-piperidin-4-yl]-4-oxazol-5-yl-benzamide]
7 | 17 | O=C(c1ccc(-c2cnco2)cc1)N(C1CC1)C1CCN(c2noc(C3CCC3)n2)CC1 [Example 52, N-[1-(5-Cyclobutyl-[1,2,4]oxadiazol-3-yl)-piperidin-4-yl]-N-cyclopropyl-4-oxazol-5-yl-benzamide]
8 | 99 | CCc1cnc(N2CCC(N(C(=O)c3ccc(-c4cnco4)cc3)C3CC3)C(C)C2)nc1 (stereo not drawn) [Example 53, N-Cyclopropyl-N-[1-(5-ethyl-pyrimidin-2-yl)-3-methyl-piperidin-4-yl]-4-oxazol-5-yl-benzamide]
9 | 43 | CC1CN(c2nc(-c3ccccc3)no2)CCC1N(C(=O)c1ccc(-c2cnco2)cc1)C1CC1 (stereo not drawn) [Example 54, N-Cyclopropyl-N-[3-methyl-1-(3-phenyl-[1,2,4]oxadiazol-5-yl)-piperidin-4-yl]-4-oxazol-5-yl-benzamide]
10 | 1150 | O=C(c1ccc(-c2cnco2)cc1)N(C1CC1)C1CCN(c2nc(CC3CCOCC3)no2)CC1 [Example 55, N-Cyclopropyl-4-oxazol-5-yl-N-{1-[3-(tetrahydro-pyran-4-ylmethyl)-[1,2,4]oxadiazol-5-yl]-piperidin-4-yl}-benzamide]
11 | 159 | O=C(c1ccc(-c2cnco2)cc1)N(C1CC1)C1CCN(c2nc(C3CCOCC3)no2)CC1 [Example 56, N-Cyclopropyl-4-oxazol-5-yl-N-{1-[3-(tetrahydro-pyran-4-yl)-[1,2,4]oxadiazol-5-yl]-piperidin-4-yl}-benzamide]
12 | 22 | C=CCCc1noc(N2CCC(N(C(=O)c3ccc(-c4cnco4)cc3)C3CC3)CC2)n1 [Example 57, N-[1-(3-But-3-enyl-[1,2,4]oxadiazol-5-yl)-piperidin-4-yl]-N-cyclopropyl-4-oxazol-5-yl-benzamide]
13 | 629 | CC(C)(CO)c1noc(N2CCC(N(C(=O)c3ccc(-c4cnco4)cc3)C3CC3)CC2)n1 [Example 58, N-Cyclopropyl-N-{1-[3-(2-hydroxy-1,1-dimethyl-ethyl)-[1,2,4]oxadiazol-5-yl]-piperidin-4-yl}-4-oxazol-5-yl-benzamide]
14 | 23 | CCCc1nc(N2CCC(N(C(=O)c3ccc(-c4cnco4)cc3)C3CC3)CC2)no1 [Example 59, N-Cyclopropyl-4-oxazol-5-yl-N-[1-(5-propyl-[1,2,4]oxadiazol-3-yl)-piperidin-4-yl]-benzamide]
15 | 50 | O=C(c1ccc(-c2cnco2)cc1)N(C1CC1)C1CCN(c2nc(CCC(F)(F)F)no2)CC1 [Example 60, N-Cyclopropyl-4-oxazol-5-yl-N-{1-[3-(3,3,3-trifluoro-propyl)-[1,2,4]oxadiazol-5-yl]-piperidin-4-yl}-benzamide]
16 | 52 | Cc1cnc(N2CCC(N(C(=O)c3ccc(-c4cnco4)cc3)C3CC3)CC2)cn1 [Example 61, N-Cyclopropyl-N-[1-(5-methyl-pyrazin-2-yl)-piperidin-4-yl]-4-oxazol-5-yl-benzamide]
17 | 16 | O=C(c1ccc(-c2cnco2)cc1)N(C1CC1)C1CCN(c2nc(CC(F)(F)F)no2)CC1 [Example 62, N-Cyclopropyl-4-oxazol-5-yl-N-{1-[3-(2,2,2-trifluoro-ethyl)-[1,2,4]oxadiazol-5-yl]-piperidin-4-yl}benzamide]
18 | 3 | CCc1cnc(N2CCC(N(C(=O)c3ccc(-c4cnco4)c(F)c3)C3CC3)CC2)nc1 [Example 63, N-Cyclopropyl-N-[1-(5-ethyl-pyrimidin-2-yl)-piperidin-4-yl]-3-fluoro-4-oxazol-5-yl-benzamide]
19 | 4 | CC(C)c1noc(N2CCC(N(C(=O)c3ccc(-c4cnco4)c(F)c3)C3CC3)CC2)n1 [Example 64, N-Cyclopropyl-3-fluoro-N-[1-(3-isopropyl-[1,2,4]oxadiazol-5-yl)-piperidin-4-yl]-4-oxazol-5-yl-benzamide]
20 | 7 | CCCc1noc(N2CCC(N(C(=O)c3ccc(-c4cnco4)c(F)c3)C3CC3)CC2)n1 [Example 65, N-Cyclopropyl-3-fluoro-4-oxazol-5-yl-N-[1-(3-propyl-[1,2,4]oxadiazol-5-yl)-piperidin-4-yl]-benzamide]
21 | 210 | Cc1cnc(N2CCC(N(C(=O)c3ccc(-c4cnco4)c(F)c3)C3CC3)CC2)cn1 [Example 66, N-Cyclopropyl-3-fluoro-N-[1-(5-methyl-pyrazin-2-yl)-piperidin-4-yl]-4-oxazol-5-yl-benzamide]
22 | 188 | CC(C)(C)c1noc(N2CCC(N(C(=O)c3ccc(-c4cnco4)c(F)c3)C3CC3)CC2)n1 [Example 67, N-[1-(3-tert-Butyl-[1,2,4]oxadiazol-5-yl)-piperidin-4-yl]-N-cyclopropyl-3-fluoro-4-oxazol-5-yl-benzamide]
23 | 211 | CCc1cnc(N2CCC(N(C(=O)c3ccc(-c4cnco4)c(F)c3)C3CC3)CC2)cn1 [Example 68, N-Cyclopropyl-N-[1-(5-ethyl-pyrazin-2-yl)-piperidin-4-yl]-3-fluoro-4-oxazol-5-yl-benzamide]
24 | 198 | CC(C)c1noc(N2CCC(N(C(=O)c3cc(F)c(-c4cnco4)c(F)c3)C3CC3)CC2)n1 [Example 69, N-Cyclopropyl-3,5-difluoro-N-[1-(3-isopropyl-[1,2,4]oxadiazol-5-yl)-piperidin-4-yl]-4-oxazol-5-yl-benzamide]
25 | 191 | Cc1cnc(N2CCC(N(C(=O)c3ccc(-c4cnco4)c(F)c3)C3CC3)CC2)nc1 [Example 70, N-Cyclopropyl-3-fluoro-N-[1-(5-methyl-pyrimidin-2-yl)-piperidin-4-yl]-4-oxazol-5-yl-benzamide]
26 | 11 | O=C(c1ccc(-c2cnco2)cc1)N(C1CC1)C1CCN(c2ncc(Br)cc2F)CC1 [Example 71, N-(5′-Bromo-3′-fluoro-3,4,5,6-tetrahydro-2H-[1,2′]bipyridinyl-4-yl)-N-cyclopropyl-4-oxazol-5-yl-benzamide]
27 | 864 | O=C(c1ccc(-c2cnco2)cc1)N(C1CC1)C1CCN(c2ccc(C3CC3)nn2)CC1 [Example 72, N-Cyclopropyl-N-[1-(6-cyclopropyl-pyridazin-3-yl)-piperidin-4-yl]-4-oxazol-5-yl-benzamide]
28 | 38 | Cc1cnc(N2CCC(N(C(=O)c3ccc(-c4cnco4)cc3)C3CC3)CC2)c(F)c1 [Example 73, N-Cyclopropyl-N-(3′-fluoro-5′-methyl-3,4,5,6-tetrahydro-2H-[1,2′]bipyridinyl-4-yl)-4-oxazol-5-yl-benzamide]
29 | 8 | O=C(c1ccc(-c2cnco2)cc1)N(C1CC1)C1CCN(c2ncc(C(F)(F)F)cc2F)CC1 [Example 74, N-Cyclopropyl-N-(3′-fluoro-5′-trifluoromethyl-3,4,5,6-tetrahydro-2H-[1,2′]bipyridinyl-4-yl)-4-oxazol-5-yl-benzamide]
30 | 87 | CCCOc1cnc(N2CCC(N(C(=O)c3ccc(-c4cnco4)cc3)C3CC3)CC2)nc1 [Example 75, N-Cyclopropyl-4-oxazol-5-yl-N-[1-(5-propoxy-pyrimidin-2-yl)-piperidin-4-yl]-benzamide]
